# From patent publication US9999222B2, “Herbicidal combination comprising azines” (BASF SE, priority 2014, dated 2018)
# “And” between values parts separate entries of the source, which are not always exact repeats. Equal values may be shown once. Read-outs that look alike come from different tables or passages of the source.
# Assays:
# Assay in all cases: Greenhouse test, pre-emergence treatment
# [1] = test system: ABUTH; assay type: in vivo, Abutilon theophrasti; details: Abutilon theophrasti, 480 h
# Outline: (§1)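 Seeds were sown in loamy sand with approximately 3.0% humus, then sprayed at once with actives suspended or emulsified in water. Pots were watered, hooded until rooting, held at 10-25° C. or 20-35° C. by species for 2 to 4 weeks, and scored 0 (no damage) to 100 (no emergence/complete destruction).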
# [2] = test system: APESV; assay type: in vivo, Apera spica-venti; details: for inhibition at 12.5 g/ha: use rate 12.5 g ai/ha; for inhibition at 25 g/ha: use rate 25 g ai/ha
# From the text: (§2) The culture containers used were plastic flowerpots containing loamy sand with approximately 3.0% of humus as the substrate. The seeds of the test plants were sown separately for each species.
# (§3) For the pre-emergence treatment, the active ingredients, which had been suspended or emulsified in water, were applied directly after sowing by means of finely distributing nozzles. The containers were irrigated gently to promote germination and growth and subsequently covered with transparent plastic hoods until the plants had rooted. This cover caused uniform germination of the test plants, unless this had been impaired by the active ingredients.
# (§4) Depending on the species, the plants were kept at 10-25° C. or 20-35° C., respectively.
# (§5) The test period extended over 2 to 4 weeks. During this time, the plants were tended, and their response to the individual treatments was evaluated.
# (§6) Evaluation was carried out using a scale from 0 to 100. 100 means no emergence of the plants, or complete destruction of at least the aerial moieties, and 0 means no damage, or normal course of growth. A moderate herbicidal activity is given at values of at least 60, a good herbicidal activity is given at values of at least 70, and a very good herbicidal activity is given at values of at least 85.
# (§7) The respective stated components a and b, and if appropriate, c were formulated as a 10% by weight strength emulsion concentrate and, with addition of the amount of solvent system, introduced into the spray liquor used for applying the active compound.
# (§8) In the examples, the solvent used was water.
# (§9) In the examples below, using the method of S. R. Colby (1967) “Calculating synergistic and antagonistic responses of herbicide combinations”, Weeds 15, p. 22ff., the value E, which is expected if the activity of the individual active compounds is only additive, was calculated. E=X+Y−(X·Y/100) where • X=percent activity using active compound a at an application rate A; • Y=percent activity using active compound b at an application rate B; • E=expected activity (in %) by a+b at application rates A+B.
# (§10) If the value found experimentally is higher than the value E calculated according to Colby, a synergistic effect is present.
# [3] = test system: ANTAR; assay type: in vivo; details: Anthemis arvensis, 480 h, 20 DAT, read-out: observed % activity
# Outline: as §1
# [4] = test system: SIDRH; assay type: in vivo, Sida rhombifolia
# Outline: as §1
# [5] = test system: CENCY; assay type: in vivo; details: 480 h, individual, read-out: observed % activity 20 DAT
# [6] = test system: DIGSA; assay type: in vivo; details: Digitaria sanguinalis, 480 h, read-out: observed % activity 20 DAT
# [7] = test system: VIOAR; assay type: in vivo, Viola arvensis
# From the text: as §2, §3, §4, §5, §6, §7, §8, §9, §10
# [8] = test system: IPOHE; assay type: in vivo, Ipomoea hederacea; details: Ipomoea hederacea, 480 h
# Outline: as §1
# [9] = test system: CENCY; assay type: in vivo, Centaurea cyanus
# [10] = test system: ERICA; assay type: in vivo, Erigeron canadensis
# [11] = test system: MATIN; assay type: in vivo
# [12] = test system: DIGSA; assay type: in vivo, Digitaria sanguinalis; details: 8 g ai/ha
# [13] = test system: ERICA; assay type: in vivo; details: 480 h, 125 g ai/ha, read-out: observed % activity 20 DAT
# [14] = 16 g ai/ha, 20 DAT, read-out: observed % activity
# [15] = 24 g ai/ha, read-out: observed % activity 20 DAT
# [16] = Apera spica-venti, 480 h, APESV, 20 DAT, read-out: observed % activity 20 DAT
# [17] = Apera spica-venti, 480 h, read-out: observed % activity 20 DAT
smiles,measurement,setting,value
"CC(C)N(C)S(=O)(=O)NC(=O)c1cc(-n2c(=O)cc(C(F)(F)F)n(C)c2=O)c(F)cc1Cl [Saflufenacil, saflufenacil]",inhibition at 10 g/ha,"[1]; 10 g ai/ha, 20 DAT, read-out: observed % activity",90%
same,inhibition at 10 g/ha,"[1]; 10 g ai/ha, read-out: observed % activity 20 DAT",25%
same,inhibition at 10 g/ha,"[1]; ABUTH, individual, use rate 10 g ai/ha, read-out: observed % activity 20 DAT",25%
same,inhibition at 3.125 g/ha,"[2]; Apera spica-venti, 480 h, APESV, use rate 3.125 g ai/ha, 20 DAT, read-out: observed % activity 20 DAT",0%
same,inhibition at 5 g/ha,[3]; 5 g ai/ha,98%
same,inhibition at 5 g/ha,"[4]; Sida rhombifolia, pre-emergence, 480 h, 5 g ai/ha, 20 DAT, read-out: observed % activity",55%
same,inhibition at 10 g/ha,"[4]; Sida rhombifolia, pre-emergence, 480 h, 10 g ai/ha, 20 DAT, read-out: observed % activity",90%
same,inhibition at 10 g/ha,"[4]; Sida rhombifolia, pre-emergence, 480 h, SIDRH, pre-emergence, individual, use rate 10 g ai/ha, read-out: observed % activity 20 DAT",20%
same,inhibition at 10 g/ha,"[4]; Sida rhombifolia, pre-emergence, 480 h, pre-emergence, 10 g ai/ha, read-out: observed % activity 20 DAT",20%
same,inhibition at 5 g/ha,[5]; use rate 5 g ai/ha,20%
same,inhibition at 10 g/ha,[5]; use rate 10 g ai/ha,30%
same,inhibition at 18 g/ha,[6]; 18 g ai/ha,0%
same,inhibition at 36 g/ha,[6]; 36 g ai/ha,65%
"CCC(CC)Nc1c([N+](=O)[O-])cc(C)c(C)c1[N+](=O)[O-] [Pendimethalin, pendimethalin]",inhibition at 125 g/ha,"[2]; Apera spica-venti, 480 h, use rate 125 g ai/ha, read-out: observed % activity 20 DAT",85%
same,inhibition at 250 g/ha,"[2]; Apera spica-venti, 480 h, use rate 250 g ai/ha, read-out: observed % activity 20 DAT",75%
same,inhibition at 500 g/ha,"[2]; Apera spica-venti, 480 h, use rate 500 g ai/ha, read-out: observed % activity 20 DAT",95%
same,observed % activity 20 DAT,"[2]; use rate 125 g ai/ha, 20 DAT",60%
same,observed % activity 20 DAT,"[2]; use rate 250 g ai/ha, 20 DAT",75%
same,observed % activity 20 DAT,"[2]; use rate 500 g ai/ha, 20 DAT",95%
same,observed % activity 20 DAT,[7]; use rate 500 g ai/ha,80%
same,pest or weed control at 500 g/ha,"[8]; 500 g ai/ha, read-out: observed % activity 20 DAT",0%
same,pest or weed control at 1000 g/ha,"[8]; 1000 g ai/ha, read-out: observed % activity 20 DAT",0%
same,observed % activity 20 DAT,[9]; 500 g ai/ha,25%
same,observed % activity 20 DAT,[9]; 1000 g ai/ha,0%
same,observed % activity 20 DAT,[10]; 500 g ai/ha,90%
same,observed % activity 20 DAT,[10]; 1000 g ai/ha,90%
"CC(C)N(C(=O)COc1nnc(C(F)(F)F)s1)c1ccc(F)cc1 [Flufenacet, flufenacet]",observed % activity 20 DAT,[7]; use rate 30 g ai/ha,0%
"CC1(c2nc(N)nc(Nc3c(F)c(F)cc(F)c3F)n2)CCC1 [compound 8, 6-(1-methylcyclobutyl)-N4-(2,3,5,6-tetrafluorophenyl)-1,3,5-triazine-2,4-diamine]",inhibition at 8 g/ha,"[1]; 8 g ai/ha, 20 DAT, read-out: observed % activity",80%
same,inhibition at 16 g/ha,[1]; [14],70%
same,inhibition at 8 g/ha,[3]; 8 g ai/ha,80%
same,inhibition at 16 g/ha,[3]; 16 g ai/ha,85%
same,inhibition at 16 g/ha,[8]; [14],35%
same,observed % activity,"[4]; 8 g ai/ha, 20 DAT",80%
same,observed % activity,"[4]; 16 g ai/ha, 20 DAT",80%
same,inhibition at 8 g/ha,"[4]; Sida rhombifolia, pre-emergence, 480 h, 8 g ai/ha, 20 DAT, read-out: observed % activity",65%
same,inhibition at 16 g/ha,"[4]; Sida rhombifolia, pre-emergence, 480 h, 16 g ai/ha, 20 DAT, read-out: observed % activity",85%
"COCC(C)N(C(=O)CCl)c1c(C)csc1C (stereo not drawn) [Dimethenamid, dimethenamid]",observed % activity 20 DAT,"[2]; use rate 62.5 g ai/ha, 20 DAT",95%
same,inhibition at 31.25 g/ha,"[7]; Viola arvensis, 480 h, use rate 31.25 g ai/ha, read-out: observed % activity 20 DAT",0%
same,inhibition at 62.5 g/ha,"[7]; Viola arvensis, 480 h, use rate 62.5 g ai/ha, read-out: observed % activity 20 DAT",0%
same,inhibition at 125 g/ha,"[7]; Viola arvensis, 480 h, use rate 125 g ai/ha, read-out: observed % activity 20 DAT",0%
same,observed % activity 20 DAT,[7]; use rate 31.25 g ai/ha,0%
same,observed % activity 20 DAT,[7]; use rate 62.5 g ai/ha,0%
same,observed % activity 20 DAT,[7]; use rate 125 g ai/ha,0%
same,pest or weed control at 250 g/ha,"[4]; Sida rhombifolia, 480 h, pre-emergence, 250 g ai/ha, read-out: observed % activity 20 DAT",70%
same,observed % activity 20 DAT,"[4]; pre-emergence, 250 g ai/ha",70%
same,observed % activity 20 DAT,[11]; use rate 62.5 g ai/ha,70%
same,observed % activity 20 DAT,[11]; use rate 125 g ai/ha,90%
"Cn1nc(C(F)(F)F)c(CS(=O)(=O)C2=NOC(C)(C)C2)c1OC(F)F [Pyroxasulfone, pyroxasulfone]",pest or weed control at 24 g/ha,[1]; [15],40%
same,inhibition at 12.5 g/ha,[2]; [16],40%
same,inhibition at 25 g/ha,[2]; [16],50%
same,inhibition at 12.5 g/ha,[2]; [17],50%
same,inhibition at 25 g/ha,[2]; [17],60%
same,pest or weed control at 24 g/ha,[8]; [15],10%
same,pest or weed control at 12 g/ha,"[4]; Sida rhombifolia, 480 h, pre-emergence, 12 g ai/ha, read-out: observed % activity 20 DAT",45%
same,pest or weed control at 24 g/ha,"[4]; Sida rhombifolia, 480 h, pre-emergence, 24 g ai/ha, read-out: observed % activity 20 DAT",95%
same,observed % activity 20 DAT,"[4]; pre-emergence, 12 g ai/ha",45%
same,observed % activity 20 DAT,[9]; 24 g ai/ha,15%
same,observed % activity 20 DAT,[12],95%
CSc1nnc(C(C)(C)C)c(=O)n1N [metribuzin],inhibition at 250 g/ha,"[8]; 250 g ai/ha, read-out: observed % activity 20 DAT",20%
same,inhibition at 125 g/ha,[13],98%
"CC(C)(F)c1nc(N)nc(Nc2c(F)c(F)cc(F)c2F)n1 [compound 2, 6-(1-Fluoro-1-methyl-ethyl)-N4-(2,3,5,6-tetrafluorophenyl)-1,3,5-triazine-2,4-diamine]",inhibition at 1 g/ha,"[2]; Apera spica-venti, 480 h, APESV, use rate 1 g ai/ha, 20 DAT, read-out: observed % activity 20 DAT",95%
same,inhibition at 2 g/ha,"[2]; Apera spica-venti, 480 h, APESV, use rate 2 g ai/ha, 20 DAT, read-out: observed % activity 20 DAT",95%
same,observed % activity 20 DAT,"[2]; use rate 2 g ai/ha, 20 DAT",90% and 95%
same,observed % activity 20 DAT,"[2]; use rate 4 g ai/ha, 20 DAT",98%
same,observed % activity 20 DAT,[7]; use rate 2 g ai/ha,50%
same,observed % activity 20 DAT,[11]; use rate 1 g ai/ha,98%
